Converted amounts (≈) assume the structure as drawn. “Also recorded” adds a separate entry of the source. Residues, ends and D or L forms follow the SMILES beside them.
How the values were obtained:
[1] = tested on: LptC–LptA interaction; conditions: yeast two-hybrid system; ref Zhang et al., 2019; cited from earlier work
[2] = tested on: E. coli and other Enterobacterial species; design: method as in Zhang et al., 2019; conditions: ref Zhang et al., 2019; cited from earlier work
[3] = tested on: E. coli WT strain MG1655; test: MIC determination, WT strain MG1655; assay type: cell-based, Escherichia coli
Protocol: (§1) The minimal inhibitory concentration (MIC) values of thanatin, thanatin scramble, and vancomycin (as a positive control) were assessed with a protocol adapted from [Wiegand et al. (2008)] using 96-well microtiter plates. Stationary phase cultures of the E. coli WT strain MG1655 ([Blattner et al., 1997]), the permeabilized mutants AS19 ([Sekiguchi and Iida, 1967]) and NR698 ([Ruiz et al., 2005]), and the BACTH strain BTH101 ([Karimova et al., 1998]; [Ouellette et al., 2017]) grown at 37°C in LB medium, were diluted in fresh medium adjusting the OD600 to a value of 0.05 and incubated in the presence of twofold decreasing concentrations of the compounds ranging from 64 μg/mL to 62.5 ng/mL. After 24 h of incubation at 37°C, the OD600 was measured by a plate reader (EnSpire Multimode Plate Reader, PerkinElmer). The MIC value was determined as the lowest concentration of compound leading to no detectable growth.

[4] = tested on: E. coli BTH101; test: microbe, parasite or virus in culture; assay type: cell-based, Escherichia coli
Protocol: as §1

[5] = tested on: E. coli permeabilized mutant AS19; test: microbe, parasite or virus in culture; assay type: cell-based, Escherichia coli; conditions: 24 h
Protocol: as §1

[6] = tested on: E. coli permeabilized mutant NR698; test: microbe, parasite or virus in culture; assay type: cell-based, Escherichia coli; conditions: 24 h
Protocol: as §1

[7] = tested on: permeabilized E. coli mutants (AS19 and NR698); test: MIC, permeabilized E. coli mutants; assay type: cell-based, Escherichia coli; conditions: permeabilized mutant strains; in words
Protocol: as §1

[8] = tested on: LptC–LptAm interaction (T25LptC–TM18LptAm, CA); test: BACTH assay, inhibition of LptC–LptAm interaction; assay type: cell-based, Escherichia coli; conditions: BTH101, 18 h, 30°C, 0.5 mM IPTG, 0.7, 1.0, 1.4 μg/mL (sub-MIC), at least eight technical replicates from two independent experiments
Protocol: (§2) To study protein–protein interactions with the BACTH system, electrocompetent BTH101 cells were co-transformed with each pair of plasmids to be tested (Figure 2A), plated onto LB plates containing selective antibiotics (100 μg/mL ampicillin and 50 μg/mL spectinomycin) and incubated at 30°C for 24–48 h. Interaction efficiencies were quantified by determining the β-galactosidase activities in 96-well microtiter plates according to a protocol adapted from [Paschos et al. (2011)]. For this measurement, at least eight clones from each plasmid combination were analyzed for β-galactosidase activity in two independent experiments. […] The β-galactosidase activity was measured from 20 μL culture diluted in 80 μL PM2 buffer (70 mM Na2HPO4. 12H20, 30 mM NaH2PO4. H2O, 1 mM MgSO4, 0.2 mM MnSO4, pH 7.0) containing 8 mg/mL ortho-nitrophenyl-β-galactoside (ONPG), 0.01% SDS, and 50 mM β-mercaptoethanol. […] The optical densities at 420 and 550 nm were recorded for each sample using a plate reader (EnSpire Multimode Plate Reader, PerkinElmer) and the specific activity was calculated with the formula: Miller units = [OD420 - (1.75 × OD550)]/[t × OD600 × (volume in mL)] × 1000, where OD600 is the optical density at 600 nm after overnight incubation and t is the time in minutes needed for color formation.

[9] = tested on: LptA–LptA interaction (TM25LptA–TM18LptA, AA); test: BACTH assay, inhibition of LptA–LptA interaction; assay type: cell-based, Escherichia coli; conditions: BTH101, 18 h, 30°C, 0.5 mM IPTG, 0.7, 1.0, 1.4, 2.8 μg/mL (sub-MIC); at least eight technical replicates from two independent experiments
Protocol: as §2

[10] = tested on: LptC–LptAm complex; test: NMR, disruption of LptC–LptAm complex; assay type: binding, Escherichia coli; conditions: 2D-[1H,13C]-methyl-SOFAST, 25°C, 20 μM LptC, 40 μM LptAm, 42 μM peptide, 50 mM Na2HPO4 pH 8.0, 150 mM NaCl, 10% D2O
Protocol: Nuclear magnetic resonance experiments were recorded at 25°C on Bruker 600 MHz spectrometer equipped with a triple resonance cryoprobe. […] Unlabeled LptAm at 40 μM prepared in the exact same buffer was added to LptC to achieve 100% of LptC complexed with LptAm. Thanatin or Scr at 42 μM was added to the complex and interaction experiments were followed using 2D-[^1H, ^13C]-methyl-SOFAST experiments. NMR experiments were processed and analyzed using Topspin 3.2 and CcpNmr 2.4.

[11] = tested on: LptAm; conditions: SPR, Biacore T200, CM3 chip, HBS-N; peptide 0, 0.1, 1 μM; listed as Scr
Source text: (§3) Escherichia coli LptC lacking the first 23 residues of the transmembrane domain was expressed from a plasmid (LptC pQESH, QIAGEN) with an N-terminal His-Tag and purified as described ([Laguri et al., 2017]). LptC was expressed in ^15N enriched deuterated medium with specific ^13C-^1H labeling of Isoleucines δ1 and Leucine and Valine proR methyl groups according to standard protocols ([Kerfah et al., 2015]) with NMRbio precursors^1. LptAm coding for residues 28–159 followed by a […] TAG in a pET21b vector was expressed and purified as described ([Laguri et al., 2017]). Both proteins were exchanged to 50 mM Na2HPO4 pH 8.0, 150 mM NaCl buffer.
(§4) Surface plasmon resonance (SPR) experiments were performed on a Biacore T200 with a CM3 chip. HBS-P+ and HBS-N buffers (GE Healthcare) were used for immobilization and interactions, respectively. 66 Resonance units (RUs) of LptAm were immobilized on a flow cell by the amine (EDC-NHS) coupling method followed by ethanolamine saturation, with a flow cell modified only with EDC-NHS-ethanolamine as reference for subtractions. For interactions, protein and ligands were diluted in HBS-N running buffer and regeneration between injections achieved with a 30 s pulse of 10 mM HCl. Sensorgrams shown were subtracted with the reference flow cell as well as with injection of buffer alone.

[12] = tested on: LptC–LptAm interaction; test: SPR, effect on LptC binding to immobilized LptAm; design: species or system Escherichia coli; conditions: peptide up to 1 μM followed by LptC injection at 10 μM, HBS-N, listed as Scr
Source text: as §3, §4

[13] = in vivo; cited from earlier work
Source text: (§5) Due to its relevance in Gram-negative bacteria cell physiology, LPS biogenesis can be considered a promising target for the development of novel antibacterial molecules. Potent inhibitors of the lipid A biosynthesis were identified in past studies and are continuously in development ([Simpson and Trent, 2019]). Moreover, two compounds targeting the MsbA-mediated IM translocation process have been recently reported ([Ho et al., 2018]; [Zhang et al., 2018]). However, the only inhibitor of LPS biogenesis to have entered, so far, Phase III trials is Murepavadin, a macrocyclic peptidomimetic select ...

[14] = tested on: Pseudomonas aeruginosa LptD; conditions: ref Srinivas et al., 2010; Lehman and Grabowicz, 2019; cited from earlier work
Source text: as §5

[15] = target: T1, His6-LptC_(24-191), LptC lacking the first 23 residues of the transmembrane domain (Escherichia coli, UniProt P0ADV9 24-191); test: SPR; conditions: both partners purified
T1 sequence (looked up): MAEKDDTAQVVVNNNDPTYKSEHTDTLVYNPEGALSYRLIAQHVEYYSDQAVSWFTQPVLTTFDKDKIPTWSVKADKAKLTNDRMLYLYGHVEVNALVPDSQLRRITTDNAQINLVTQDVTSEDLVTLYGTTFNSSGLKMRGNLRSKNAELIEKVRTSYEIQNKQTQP

[16] = target: immobilized LptAm; test: SPR, Kd of LptC–LptAm; design: species or system Escherichia coli; conditions: LptC (5.6–100 μM) over immobilized LptAm, CM3 chip, HBS-N, steady-state binding levels, read-out: Kd of LptC–LptAm interaction
Source text: as §3, §4

Clc1cc2c(c3ncccc13)OCN(CCc1ccccc1)C2 [IMB-881]
disruption of LptC–LptA interaction [1]: inhibiting LptC–LptA interaction; also recorded: disrupts LptC–LptA interaction | bactericidal activity [2]: bactericidal activity

CC[C@H](C)[C@H](NC(=O)[C@H](CS)NC(=O)[C@@H](NC(=O)[C@@H](N)Cc1ccc(O)cc1)C(C)C)C(=O)N[C@@H](CCCNC(=N)N)C(=O)N[C@@H](CCSC)C(=O)N[C@@H](CC(N)=O)C(=O)N[C@@H](CCCCN)C(=O)N[C@H](C(=O)N[C@@H](CO)C(=O)N1CCC[C@H]1C(=O)N[C@@H](CCCCN)C(=O)N[C@@H](CCC(N)=O)C(=O)N[C@@H](CCCNC(=N)N)C(=O)N[C@H](C(=O)N1CCC[C@H]1C(=O)NCC(=O)NCC(=O)N[C@@H](CCCNC(=N)N)C(=O)N[C@@H](CS)C(=O)N[C@@H](CCCCN)C(=O)O)[C@@H](C)O)[C@@H](C)CC [Thanatin scramble] (H-YVCIRMNKISPKQRTPGGRCK-OH; N-terminus and C-terminus assumed)
MIC ([3]; MG1655, LB, 24 h, 37°C, start OD600 0.05, twofold dilutions 64 μg/mL to 62.5 ng/mL, OD600 read-out): above 64 μg/mL | antibacterial activity ([3]; scrambled vs thanatin, in words): loses the antibacterial activity | MIC ([4]; BTH101, LB, 24 h, 37°C, start OD600 0.05, twofold dilutions 64 μg/mL to 62.5 ng/mL, OD600 read-out): >64 µg/mL | MIC ([5]; AS19, LB, 37°C, start OD600 0.05, twofold dilutions 64 μg/mL to 62.5 ng/mL, OD600 read-out): 64 µg/mL (≈ 26.3 µM) | MIC ([6]; NR698, LB, 37°C, start OD600 0.05, twofold dilutions 64 μg/mL to 62.5 ng/mL, OD600 read-out): 32 to 64 µg/mL | MIC relative to WT strain / antibacterial activity [7]: no significant difference relative to the WT strain | effect on LptC–LptAm interaction (β-galactosidase activity) [8]: fails to disrupt the LptC–LptA interaction in vivo (BACTH assay) | effect on LptC–LptAm interaction (β-galactosidase activity) ([8]; listed as thanatin scramble): not capable of disrupting these periplasmic interactions in a dose-dependent manner | effect on LptA–LptA interaction (β-galactosidase activity) [9]: not capable of disrupting these periplasmic interactions in a dose-dependent manner | disruption of LptC–LptAm complex (175Ile and 184Ile δ1 methyl shifts) [10]: did not change LptC–LptAm spectra; also recorded: fails to disrupt the LptC–LptA interaction in vivo (BACTH assay) and in vitro (NMR) | disruption of LptC–LptAm complex (175Ile and 184Ile δ1 methyl shifts) ([10]; listed as thanatin scramble): no disruption of the LptC–LptAm complex | binding to immobilized LptAm [11]: no or little binding | effect on LptC binding to immobilized LptAm [12]: no effect on LptC binding

CN[C@H](CC(C)C)C(=O)N[C@H]1C(=O)N[C@@H](CC(N)=O)C(=O)N[C@H]2C(=O)N[C@H]3C(=O)N[C@H](C(=O)N[C@H](C(=O)O)c4cc(O)cc(O)c4-c4cc3ccc4O)[C@H](O)c3ccc(c(Cl)c3)Oc3cc2cc(c3O[C@@H]2O[C@H](CO)[C@@H](O)[C@H](O)[C@H]2O[C@H]2C[C@](C)(N)[C@H](O)[C@H](C)O2)Oc2ccc(cc2Cl)[C@H]1O [Vancomycin, reference compound]
MIC ([3]; Escherichia coli, MG1655, 24 h): > 64 µg/mL | MIC ([4]; Escherichia coli, BTH101, 24 h): > 64 µg/mL | MIC ([5]; Escherichia coli): 4 to 8 µg/mL (≈ 2.76 to 5.52 µM) | MIC ([6]; Escherichia coli): 0.5 to 1 µg/mL (≈ 0.345 to 0.69 µM)

Murepavadin
clinical toxicity [13]: nephrotoxicity | target selectivity [14]: selectively directed against Pseudomonas aeruginosa LptD

B1: LptAm, LptA residues 28-159 followed by a … tag (purified) (domain or fragment, Escherichia coli, UniProt P0ADV1 28-159, looked up)
chain: VTGDTDQPIHIESDQQSLDMQGNVVTFTGNVIVTQGTIKINADKVVVTRPGGEQGKEVIDGYGKPATFYQMQDNGKPVEGHASQMHYELAKDFVVLTGNAYLQQVDSNIKGDKITYLVKEQKMQAFSDKGKR
notes: also called LptAΔ_(160–185)-His6; monomeric version of LptA; source: E. coli BL21(DE3) (pET21b vector), purified as described (Laguri et al., 2017)
Kd [15]: 80 ± 44 µM

B2: LptC: Escherichia coli LptC lacking the first 23 residues of the transmembrane domain, with an N-terminal His-Tag (protein, UniProt P0ADV9 24-191, looked up, fragment)
chain: T1 sequence (looked up)
modifications: N-terminal His-tag
notes: Escherichia coli LptC lacking the first 23 residues of the transmembrane domain, with an N-terminal His-Tag
Kd [16]: 80 ± 44 µM

From paper PMC7237710, “Thanatin Impairs Lipopolysaccharide Transport Complex Assembly by Targeting LptC–LptA Interaction and Decreasing LptA Stability” (Frontiers in Microbiology, 2020)
